Source: US11654136B2, “Phosphoinositide 3-kinase inhibitor with a zinc binding moiety” (Curis, Inc., priority 2011, dated 2023)
Read-outs that look alike come from different tables or passages of the source.

What was measured:
[1] = system: Salmonella typhimurium TA100; details: for Revertants per well TA100, Mean: * positive increase
Method: (§1) The tester strains used in the mutagenicity assay were Salmonella typhimurium tester strains TA98 (for detecting frame-shift reverse mutation) and TA100 (for detecting point reverse mutation). The assay was conducted in both the presence and absence of S9 mixture along with concurrent vehicle (DMSO, 20 μl/well) and positive controls in duplicate using 6-well plates. […] A reproducible two-fold increase (>2× of vehicle control) of revertant colonies over the daily average control value is considered a positive response of gene mutation for each strain.
(§2) 2-nitrofluorene and sodium azide served as the positive controls in the absence of S9 for TA98 and TA100 respectively. 2-Aminoanthracene served as the positive controls in the presence of S9 for TA98 and TA100.

[2] = system: Salmonella typhimurium TA98; test: Mini-Salmonella/mammalian-microsome reverse mutation assay TA98; details: for Revertants per well TA98, Mean: * positive increase
Method: as §1, §2

Raf, MEK, and ERK = test: Western blot of RAF-MEK-ERK pathway in H460, A375, BT-474 and H1975 cells; assay type: cell-based; details: 100 nM, 16 hours
Method: Cell extracts were prepared in the presence of SDS and 2-mercaptoethanol and resolved in polyacrylamide gels. Proteins were transferred to nitrocellulose filter and blotting was done using standard procedures with blocking solutions (Li-Cor Bioscience) containing the indicated primary antibody. Primary antibodies against p-EGFR, EGFR, p-HER2, HER2, p-HER3, HER3, p-MET, MET, p-bRaf, p-cRaf, pMEK, MEK, p-ERK, ERK and tubulin were purchased from Cell Signaling Technology. Secondary antibody conjugated with IRdye 680, 800CW were used and the signal was detected with Li-Cor Odyssey Imager.
One major limitation of PI3K inhibitors in the treatment of cancers is the activation of the RAF-MEK-ERK pathway. HDAC inhibitors are able to inhibit kinase levels in this signaling pathway in cancer cells via epigenetic modification.

[3] = +S9, positive control 0.8 μg/well
[4] = −S9, positive control 0.4 μg/well
[5] = −S9, positive control 2.0 μg/well

For `Nc1ccc2cc3ccccc3cc2c1` [2-aminoanthracene, reference compound], the “Background Lawn TA100” value [1, 3] was 4/4, the “Revertants per well TA100, well 1” value [1, 3] was over 300 and the “Revertants per well TA100, well 2” value [1, 3] was over 300. For the same compound, the “Revertants per well TA100, Mean” value [1, 3] was >300*, the “Background Lawn TA98” value [2, 3] was 4/4 and the “Revertants per well TA98, well 1” value [2, 3] was over 300. The “Revertants per well TA98, well 2” value [2, 3] was over 300 and the “Revertants per well TA98, Mean” value [2, 3] was >300*.

For `O=[N+]([O-])c1ccc2c(c1)Cc1ccccc1-2` [2-nitrofluorene, reference compound], the “Background Lawn TA98” value [2, 4] was 4/4, the “Revertants per well TA98, well 1” value [2, 4] was 55 and the “Revertants per well TA98, well 2” value [2, 4] was 63. The “Revertants per well TA98, Mean” value [2, 4] was 59*.

With `Cc1[nH]c2ccccc2c1CCNCc1ccc(/C=C/C(=O)NO)cc1` [LBH 589, reference compound] the “Activation of Raf, MEK, and ERK” value (Raf, MEK, and ERK) was “showed similar activities in some of these Western blot assays”.

`[N-]=[N+]=[N-]` [Sodium azide, reference compound] was tested, and the “Background Lawn TA100” value [1, 5] was 4/4, the “Revertants per well TA100, well 1” value [1, 5] was over 300 and the “Revertants per well TA100, well 2” value [1, 5] was over 300. The “Revertants per well TA100, Mean” value [1, 5] was >300*.
